Key:
4T1 cells = assay: Survival assay (methylene blue) of irradiated 4T1 cells; type: cell-based, mouse; details: drugs with RT, beginning 2 days prior to RT until 6 days post-RT
Protocol: Survival Analysis: Cells were seeded at 70% confluency and treated as needed for different timepoints. Cells were washed with PBS and fixed with 4% PFA for 10 min. at R.T. The fixed cells were stained with Methylene Blue (MB) for 1 hour at R.T., washed and air dried overnight. The color was extracted with 0.1M HCl for 1 hour at R.T. Absorbance was read at 630 nm.

BR45 PDX = BR45 PDX in NSG mice treated by brachytherapy, tumor growth; type: in vivo, mouse; details: pretreatment prior to brachytherapy RT (12 Gy and 10 Gy)
Source text: Mouse models: Syngeneic mouse model: 2.0×10^5 4T1 cells were inoculated subcutaneously on 6-7 weeks old female Balb/c mice. Allogeneic model: BR45 tumors were induced on NSG mice either by injecting 4.0×10^6 cells […] or subcutaneously transplanting xenografts. After reached the desired tumor volume (80-100 mm3), mice were randomly grouped to around 8-10 per cage and treatment were initialized. Tumor sizes were regularly measured with an electronic calliper every two days and their volumes were obtained using the formula V=(W (2)×L)/2. Mice were kept under conventional pathogen-free conditions. All in-vivo experiments were performed with approval of the Hebrew University of Jerusalem IACUC.
Tumor inoculation: 4T1 mouse breast carcinoma mimics stage IV triple negative breast cancer in human. It is highly metastatic to lungs, lymph nodes, liver and bones after implantation in the mammary fat pad of immune-competent Balb/c mice. Primary tumors were harvested after euthanizing female mice using carbon dioxide (CO2) inhalation. Time elapsed from tumor inoculation varied from 2 weeks to 1 month. […]
Drugs were given usually by IP or gavage depending on the drug. […] During this period the tumor volumes were measured regularly to observe the action of the drug. […]

| SMILES | cell survival / sensitization of 4T1 cells to RT (4T1 cells) | tumor growth, response to RT (BR45 PDX) |
| --- | --- | --- |
| C[C@@H](Oc1cc(-c2cnn(C3CCNCC3)c2)cnc1N)c1c(Cl)ccc(F)c1Cl [Crizotinib] | significantly less effective in sensitizing the cells to RT | – |
| C#Cc1cccc(Nc2ncnc3cc(OCCOC)c(OCCOC)cc23)c1 [erlotinib, Erlotinib] | – | did not improve the results of the treatment |

From patent publication US20230251260A1, “METHODS OF DETERMINING CANCER THERAPY” (YISSUM RESEARCH DEVELOPMENT COMPANY OF THE HEBREW …, priority 2020, published 2023)
